This is an account of results in PubChem BioAssay AID179 (DTP/NCI, 2004).

Active and inactive are the calls of the source.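 Rule for the calls: active = compounds giving half or more protection of infected cells from virus-caused growth loss, again on retest; inactive = the rest.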

The assay concerns CEM cells HIV-1 protection, formazan growth assay. The assay can be described thus: NCI AIDS Antiviral Assay. The note with it: for IC50: measured here: growth of uninfected CEM cells. An outline of the steps:
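Category rules: moderately active means at least 50% protection on retest, and confirmed active means 100% protection reproducibly. The underlying data came from a formazan growth assay in HIV-1-infected CEM cells.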

With `NCCCCCCCCCCC(=O)O`, the EC50 is 151 µM and the IC50 was greater than 200 µM.

As to `COc1ccc(/C=C2\SC(=S)NC2=O)cc1`, the EC50 is greater than 28.8 µM and the IC50 is greater than 28.8 µM.

Take `COC(=O)C1(CCC(=O)N(C)c2ccccc2)NNC2C(=O)N(c3ccccc3)C(=O)C21` (centres undefined): the EC50 was greater than 200 µM and the 50% inhibitory concentration (IC50) was greater than 200 µM.

With `O=C1/C(=C/c2ccccc2)CCCC12C(c1ccccc1)N2Cc1ccccc1` (centres undefined), the EC50 was greater than 200 µM and the IC50 turned out to be 7.41 µM.

For `CSc1nc(N)n(C(=O)c2ccc([N+](=O)[O-])cc2)n1`, the EC50 is greater than 13.5 µM and the IC50 is greater than 13.5 µM.

Take `CCOC(=O)Cc1nc2c(=O)[nH]cnc2n1C1OC(COC(C)=O)C(OC(C)=O)C1OC(C)=O` (centres undefined): the EC50 is greater than 200 µM and the IC50 was greater than 200 µM.

On to `CC1(Cl)CC(O)C2(CC1Br)C1(C)OC1C1OC1(Br)C2(C)C` (centres undefined), for which the EC50 is greater than 200 µM and the IC50 is 15.1 µM.

Take `O=C1CS/C(=N/N=C/c2nc3ccccc3c(=O)n2-c2ccc(Cl)cc2)N1c1ccccc1`: the EC50 is greater than 38 µM and the IC50 was greater than 38 µM.

Turning to `CCOc1c2c(nn(C)c1=O)Oc1ccccc1N2CCCN1CCOCC1`, the EC50 was greater than 589 µM and the IC50 is 19.1 µM.

Take `CC(C)(C)C1=CC(=O)C(Cl)(C(C)(C)C)C(Cl)C1=O` (centres undefined): the EC50 is greater than 20 µM and the IC50 stood at 1.15 µM.

As for `NS(=O)(=O)c1ccc(NC(=O)c2cccc3cc4ccccc4nc23)cc1`, the EC50 is greater than 79.4 µM and the concentration for half-maximal inhibition (IC50) worked out at 4.79 µM.

Turning to `O=[N+]([O-])c1cccnc1-n1cnc2ccccc21`, the EC50 was greater than 200 µM and the IC50 was greater than 100 µM.

In the case of `NCCCOc1ccc(-c2c3nc(cc4ccc([nH]4)c(-c4ccc(OCCCN)cc4)c4nc(cc5ccc2[nH]5)C=C4)C=C3)cc1`, the EC50 was 2.4 µM and the IC50 came to 3.31 µM.

For the compound `Cc1ccc(S(=O)(=O)c2c3[nH]c4ccccc4nc3n3c2nc2ccccc23)cc1`, the EC50 is greater than 120 µM and the half-maximal inhibitory concentration (IC50) was greater than 120 µM.

For the compound `Cc1[nH]c(=O)[nH]c(=O)c1CCSSCCc1c(C)[nH]c(=O)[nH]c1=O`, the EC50 was greater than 200 µM and the IC50 was greater than 200 µM.

For `O=c1[nH]c(=O)n(C2CC(O)C(CO)O2)c2ncncc12` (centres undefined), the EC50 was greater than 200 µM and the IC50 was greater than 200 µM.

On to `COc1ccc2c(=O)c3ccccc3oc2c1`, for which the EC50 was greater than 200 µM and the IC50 turned out to be 97.7 µM.

`Cc1cccc2c1CC(Cc1ccccc1C(=O)O)C2=O` (centres undefined): the EC50 was greater than 200 µM and the half-maximal inhibitory concentration (IC50) is greater than 200 µM.

As for `O=C(O)CC(SSCc1ccccc1)C(=O)O` (centres undefined), the EC50 was greater than 200 µM and the IC50 was greater than 200 µM.

For the compound `CCN(CC)CCn1ncc2c3c(=O)c4cccnc4n(CCN(CC)CC)c3ccc21`, the EC50 was greater than 200 µM and the IC50 turned out to be 3.47 µM.

Take `COc1cc2c(c3[nH]cc(C(=O)O)c(=O)c13)NC(=O)CS2`: the EC50 was greater than 200 µM and the IC50 is greater than 200 µM.

As for `CC(C)CC(NC=O)C(=O)NC(Cc1ccccc1)NC(=O)CNC(=O)C(C)NC(=O)C(N)Cc1ccc(O)cc1` (centres undefined), the EC50 is 141 µM and the IC50 stood at 151 µM.

For `CSC1=Nc2ccccc2N(C)c2c1c(-c1ccccc1)nn2C`, the EC50 is greater than 200 µM and the 50% inhibitory concentration (IC50) was found to be 43.7 µM.

Regarding `CC(=O)NC(CCCN(Cc1ccccc1)C(=O)N(CCCl)N=O)C(=O)NCc1ccccc1` (centres undefined), the EC50 is greater than 74.1 µM and the 50% inhibitory concentration (IC50) came out at 45.7 µM.

On to `COC(=O)C(=O)C(CC(=O)Nc1cccc(C(F)(F)F)c1)C(=O)OC` (centres undefined), for which the EC50 is greater than 14.5 µM and the IC50 was greater than 14.5 µM.

In the case of `OCCN(CCO)c1cc(Cl)c(Cl)cc1Cl`, the EC50 was greater than 200 µM and the IC50 came out at 35.5 µM.

Regarding `O=C1/C(=C/c2ccccc2)CCc2ccccc21`, the EC50 was greater than 200 µM and the half-maximal inhibitory concentration (IC50) stood at 11.5 µM.

Consider `CCC[CH2][Sn]([CH2]CCC)([S]CCS(=O)(=O)O)[S]CCS(=O)(=O)O`, for which the EC50 was greater than 200 µM and the IC50 was found to be 115 µM.

As to `O=c1n(N=S(=O)(c2ccccc2)c2ccccc2)c(=O)n2n1C1C=CC2CC1`, the EC50 is greater than 200 µM and the IC50 is greater than 200 µM.

`COc1cc([C@@H]2CC3(C)OC(=O)C2CC3C)cc(OC)c1OC` (some centres undefined): the EC50 was greater than 562 µM and the IC50 was greater than 562 µM.

Consider `COC(=O)C1C(O)CCC2CN3CCc4c([nH]c5ccccc45)C3CC21` (centres undefined), for which the EC50 was greater than 200 µM and the concentration for half-maximal inhibition (IC50) is 70.8 µM.

With `COC(=O)C1(CC(=O)OC(C)(C)C)NCCc2c1[nH]c1ccccc21` (centres undefined), the EC50 is greater than 115 µM and the IC50 was found to be 95.5 µM.

On to `COC(C(=O)NCCCCNC(=O)C(OC)c1ccccc1)c1ccccc1` (centres undefined), for which the outcome was inactive.

Take `CCO[C@H]1O[C@@H]2OC3(C)CCC4[C@H](C)CCC([C@H]1C)[C@]42OO3` (some centres undefined): the EC50 was greater than 200 µM and the half-inhibitory concentration (IC50) is 35.5 µM.

Regarding `Cc1cc(N=C2C=C(Nc3cc(C)on3)C(=O)c3ccccc32)no1`, the EC50 is greater than 11.2 µM and the IC50 was greater than 11.2 µM.

In the case of `N#CC1=C(N)n2c(s/c(=C\c3ccc(Cl)cc3)c2=O)=C(c2nc3ccccc3[nH]2)C1c1ccc(Cl)cc1` (centres undefined), the EC50 was greater than 5.01 µM and the 50% inhibitory concentration (IC50) was greater than 5.01 µM.

As to `OC1=C(O)c2ccccc21`, the EC50 was greater than 1860 µM and the concentration for half-maximal inhibition (IC50) is greater than 1860 µM.

With `Cc1cn([C@H]2C[C@@H]3[C@@H](COC(CC[Se]C#N)N3O)O2)c(=O)[nH]c1=O` (some centres undefined), the EC50 is 3.98 µM and the half-inhibitory concentration (IC50) was 28.8 µM.

Turning to `NN1CCc2ccccc2C1`, the EC50 is greater than 200 µM and the 50% inhibitory concentration (IC50) is greater than 200 µM.

As to `N#CC1=C(Nc2ccccc2)SC=C(c2ccccc2)NC1=NCc1ccccc1`, the EC50 is greater than 200 µM and the IC50 was found to be 97.7 µM.

As to `NS(=O)(=O)c1ccc(NC(=O)c2cccnc2Nc2cccc(Cl)c2)cc1`, the result was inactive.

On to `C/C(=N/NC(=S)Nc1ccc(C)cc1)c1ccccn1`, for which the EC50 was greater than 0.2 µM and the half-inhibitory concentration (IC50) came out at 0.0794 µM.

On to `O=C1CC(C2(c3ccc4c(c3)OCO4)SCCCS2)CO1` (centres undefined), for which the EC50 is greater than 155 µM and the IC50 was greater than 155 µM.

For the compound `CCOC(=O)CCC(NC(=O)c1ccc(Nc2cnc3ccc(C(F)(F)F)cc3n2)cc1)C(=O)OCC` (centres undefined), the EC50 was greater than 200 µM and the IC50 turned out to be 18.6 µM.

As for `CC(C)(C)OP(O)(=S)OC(C)(C)C`, the EC50 was greater than 200 µM and the concentration for half-maximal inhibition (IC50) was greater than 200 µM.

For the compound `O=C(O)C12CCCC(CCC1)C2`, the outcome was inactive.

In the case of `O=C1C(=O)N(CNC(c2ccccc2)c2ccccc2)c2ccccc21`, the 50% effective concentration (EC50) was greater than 126 µM and the IC50 was 102 µM.

Consider `O=C1c2cc([N+](=O)[O-])cnc2S(=O)(=O)N1c1ccc(Oc2ccccc2)cc1`, for which the EC50 is greater than 200 µM and the IC50 was 105 µM.

With `NCCCN(CCCN)CCCNCc1c2ccccc2c(CNCCCN(CCCN)CCCN)c2ccccc12`, the EC50 is 4.79 µM and the half-inhibitory concentration (IC50) turned out to be 16.6 µM.

Take `O=C1CSC2=NC3=C(CSC/C3=C\c3ccccc3)C(c3ccccc3)N12` (centres undefined): the EC50 was greater than 200 µM and the IC50 was determined as 43.7 µM.

Turning to `Cc1ccc([N+](=O)[O-])cc1NC(=O)C(=O)Cc1occc(=O)c1O`, the outcome was inactive.

With `COCN1COCN=C1NC#N`, the EC50 was greater than 525 µM and the IC50 is greater than 525 µM.

Consider `Cc1ccc(SSc2ccc([N+](=O)[O-])cc2)cc1`, for which the EC50 is greater than 200 µM and the IC50 was 9.55 µM.

For the compound `CCCCCCCCOCC(CO)OCCCCCCCC` (centres undefined), the EC50 was greater than 251 µM and the IC50 was 132 µM.

In the case of `O=C(CC12C3C4C1C1C2C3C41CC(=O)NO)NO` (centres undefined), the EC50 is greater than 251 µM and the IC50 came out at 49 µM.

Take `O=C1Oc2ccccc2C1C/C(=N\Nc1ccccc1)c1ccccc1O` (centres undefined): the EC50 was greater than 93.3 µM and the IC50 was found to be 79.4 µM.

`C/C(=C\CNc1ncnc2c1ncn2CCC(=O)OC(C)(C)C)CO`: the EC50 is greater than 200 µM and the IC50 was greater than 200 µM.

As to `O=C1c2[nH]c3ccc(Br)cc3c2CCN1Cc1ccc(Cl)cc1`, the EC50 is greater than 200 µM and the IC50 came to 11.2 µM.

For the compound `CC1CCCCN1CC(=O)c1ccc2c(c1)Sc1ccccc1O2` (centres undefined), the EC50 is greater than 200 µM and the IC50 came out at 8.13 µM.

Turning to `O=C1c2cc3c(cc2CC12Cc1ccccc1C2)CCC3`, the EC50 was greater than 200 µM and the half-inhibitory concentration (IC50) was found to be 28.2 µM.

With `CCCc1cc(=O)oc2c3c(cc(OCC)c12)O[C@H](C)[C@@H](C)C3=O`, the EC50 was greater than 200 µM and the IC50 was 8.32 µM.

Turning to `Sc1ccc2ccccc2c1CN1CCOCC1`, the EC50 is greater than 87.1 µM and the concentration for half-maximal inhibition (IC50) worked out at 32.4 µM.

Take `CN1C(=O)CC2CCCN2C1=O` (centres undefined): the EC50 was greater than 200 µM and the IC50 was greater than 200 µM.

Regarding `O=[N+]([O-])c1ccc2nc(-c3ccccc3[N+](=O)[O-])[nH]c2c1`, the EC50 was greater than 126 µM and the IC50 came to 24.5 µM.

Consider `O=c1[nH][nH]c(=O)c2nc(Nc3ccc(Cl)cc3)ncc12`, for which the EC50 was greater than 34.7 µM and the half-inhibitory concentration (IC50) is greater than 34.7 µM.

For the compound `C[C@]12C=CC(=O)C=C1CC[C@H]1[C@@H]3C[C@@H](O)[C@](O)(C(=O)CO)[C@@]3(C)C[C@H](O)[C@@]12F`, the outcome was inactive.

For the compound `CC1(C)c2ccccc2N2O[C@@H]3C(=O)N(c4ccccc4)C(=O)[C@@H]3C21c1ccccc1` (some centres undefined), the EC50 is greater than 36.3 µM and the concentration for half-maximal inhibition (IC50) was greater than 36.3 µM.

With `COC(=O)c1cc2c(=O)n(C)c(=O)n(C)c2[nH]c1=O`, the EC50 was greater than 200 µM and the IC50 was greater than 200 µM.

Consider `CCC(Oc1c2ccoc2c(OC)c2oc(=O)cc(O)c12)C(=O)O` (centres undefined), for which the EC50 is greater than 269 µM and the IC50 is greater than 269 µM.

For the compound `Nc1c(S(=O)(=O)O)cc(Nc2ccc(S(=O)(=O)O)c(Nc3nc(Cl)nc(Cl)n3)c2)c2c1C(=O)c1ccccc1C2=O`, the EC50 was greater than 200 µM and the IC50 is greater than 200 µM.

With `CCOC(=O)c1ccc(NCc2ccc3oc(=O)c(-c4ccccc4)nc3c2)cc1`, the EC50 is greater than 135 µM and the half-inhibitory concentration (IC50) is 38.9 µM.

In the case of `CC(C)(C)[Si](C)(C)OCC1OC(n2ccc(=O)[nH]c2=O)C(CCN(O)CC2OC(n3ccc(=O)[nH]c3=O)C(O[Si](C)(C)C(C)(C)C)C2O[Si](C)(C)C(C)(C)C)C1O[Si](C)(C)C(C)(C)C` (centres undefined), the EC50 was greater than 126 µM and the half-maximal inhibitory concentration (IC50) worked out at 105 µM.
